Laboratory results as given in patent publication EP4782440A9, “PSMA COMPOUND, AND PHARMACEUTICAL COMPOSITION CONTAINING SAME AND USE THEREOF” (VITSGEN THERAPEUTICS INC., priority 2023, dated 2025).

System: LnCaP cells
Assay: LnCaP cell uptake and internalization
Type: cell-based
Conditions: Table 4, 177Lu-labelled, 37 °C, 45 min
From the text: Table 4. Conditions and results of LnCaP cell uptake
wherein [formula] Table 5. Detailed results of LnCaP cell uptake

`O=C(O)CC[C@H](NC(=O)N[C@@H](CCCCNC(=O)[C@H](Cc1ccc2ccccc2c1)NC(=O)[C@H]1CC[C@H](CNC(=O)CN2CCN(CC(=O)O)CCN(CC(=O)O)CCN(CC(=O)O)CC2)CC1)C(=O)O)C(=O)O` [VWT001500, PSMA-617] was tested, and the “Cellular uptake results, internalization rate%” value was 9.57% and the “Cellular uptake results, uptake rate%” value was 1.01%.
